These compounds were tested against T1, androgen receptor (AR) splicing variant AR-v7 (Homo sapiens, UniProt P10275) (assay: Degradation activity on androgen receptor splicing variant AR-v7 in 22RV1 cells (ELISA)). Conditions: AR-v7 degradation in 22RV1 cells, 48 h, class symbols.
T1 construct: The degradation activity of compounds on AR-v7 in 22RV1 cells; host or cells: 22RV1 cells
T1 sequence (P10275 1-644 isoform P10275-3): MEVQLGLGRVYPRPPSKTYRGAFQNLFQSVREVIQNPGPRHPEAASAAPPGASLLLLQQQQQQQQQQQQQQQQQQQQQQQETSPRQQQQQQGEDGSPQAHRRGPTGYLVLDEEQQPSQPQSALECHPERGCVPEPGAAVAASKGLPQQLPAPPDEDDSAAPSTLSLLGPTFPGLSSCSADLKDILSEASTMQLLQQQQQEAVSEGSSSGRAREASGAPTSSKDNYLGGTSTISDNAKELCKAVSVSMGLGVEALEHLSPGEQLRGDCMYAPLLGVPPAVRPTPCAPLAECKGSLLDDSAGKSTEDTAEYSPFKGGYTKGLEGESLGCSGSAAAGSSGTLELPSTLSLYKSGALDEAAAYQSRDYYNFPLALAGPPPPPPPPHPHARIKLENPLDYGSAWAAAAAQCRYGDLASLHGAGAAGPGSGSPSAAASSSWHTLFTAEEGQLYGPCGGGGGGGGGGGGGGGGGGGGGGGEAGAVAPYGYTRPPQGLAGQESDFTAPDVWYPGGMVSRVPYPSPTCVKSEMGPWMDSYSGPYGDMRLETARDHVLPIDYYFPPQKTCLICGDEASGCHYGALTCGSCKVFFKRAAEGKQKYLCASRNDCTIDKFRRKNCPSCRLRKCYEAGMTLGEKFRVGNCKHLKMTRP
Assay type: cell-based
Experimental: The degradation activity of the compound of the present invention on the androgen receptor splicing variant AR-V7 was analyzed using enzyme-linked immunosorbent assay (ELISA).
The plate was cultured in a 5% CO2 cell incubator at 37° C. for 2 days until the cells adhered to the wall. • 2) The drug was prepared into 10 mM stock solution with dimethylsulfoxide (DMSO). […] The plate was gently shaken and mixed. In addition, negative control wells (only containing culture medium) and positive control wells (only containing cells and DMSO) were set. • 3) After the cells were cultured in an incubator for 48 h, the medium was removed and the cells were rinsed once with ice cold PBS. Then, ice-cold 1× cell lysis buffer was added to each well of the cell culture plate. After the plate was incubated on ice for 15 min, the plate was tapped to mix. • 4) The supernatant of the cell lysate was transferred from the cell culture plate to a […] plate for ELISA. • 5) The newly prepared Capture antibody (green) was mixed with the newly prepared HRP-labeled antibody (red), and then the antibody mixture was added to the above 96-well ELISA plate. • 6) The ELISA plate was sealed with plastic film, and then incubated in a 25° C. incubator for 1 h. • 7) The washing buffer was added to each well, and then TMB substrate was added to each well of the ELISA plate. Subsequently, the plate was cultured in an incubator at 37° C. for 5 min. • 8) 100 μl of stop solution was added to each well of the ELISA plate, and the plate was gently tapped for several seconds. The absorbance was read at 450 nm within 30 min. The data were analyzed by the Dose-response equation in the software GraphPad Prism8, to obtain DC50 and Dmax values.
`CC(C)(c1ccc(OCc2ccnc(-c3cncs3)n2)cc1)c1ccc(O[C@H]2C[C@H](Nc3ccc4c(c3)C(=O)N(C3CCC(=O)NC3=O)C4=O)C2)cc1` (stereo partly shown) [Example 272] showed a DC50 of 11 to 100 nM.
For `CCOC(=O)c1ncc(Oc2ccc(C(C)(C)c3ccc(O[C@H]4C[C@H](Nc5ccc6c(c5)C(=O)N(C5CCC(=O)NC5=O)C6=O)C4)cc3)cc2)cn1` (stereo partly shown) [Example 381, ethyl 5-(4-(2-(4-((1r,3r)-3-((2-(2,6-dioxopiperidin-3-yl)-1,3-dioxoisoindolin-5-yl)amino)cyclobutyloxy)phenyl)isopropan-2-yl)phenoxy)pyrimidin-2-carboxylate], the DC50 was 11 to 100 nM.
With `Cc1nc(-c2ncc(Oc3ccc(C(C)(C)c4ccc(O[C@H]5C[C@H](Nc6cc7c(cc6F)C(=O)N(C6CCC(=O)NC6=O)C7=O)C5)cc4)cc3)cn2)no1` (stereo partly shown) [Example 102] the DC50 was 11 to 100 nM.
For `CC(C)(c1ccc(Oc2ccc(-n3cccn3)nc2)cc1)c1ccc(O[C@H]2C[C@H](Nc3ccc4c(c3)C(=O)N(C3CCC(=O)NC3=O)C4=O)C2)cc1` (stereo partly shown) [Example 208], the DC50 was 11 to 100 nM.
`CC(C)(c1ccc(OCc2ccnc(NS(C)(=O)=O)n2)cc1)c1ccc(OC2CCN(CC3CCN(CC4CCN(CC5CN(c6ccc7c(c6)C(=O)N(C6CCC(=O)NC6=O)C7=O)C5)CC4)CC3)CC2)cc1` (stereo not shown) [Example 12] was tested, and the DC50 was 1000 to 5000 nM.
With `CC(=O)c1nccc(COc2ccc(C(C)(C)c3ccc(N4CC5(CCN(c6ccc7c(c6)C(=O)N(C6CCC(=O)NC6=O)C7=O)CC5)C4)cc3)cc2)n1` (stereo not shown) [Example 559] the DC50 was 1000 to 5000 nM.
With `CC(C)(c1ccc(OCCC#Cc2ccc3c(c2)C(=O)N(C2CCC(=O)NC2=O)C3=O)cc1)c1ccc(OCc2ccnc(N3CC4(COC4)C3)n2)cc1` (stereo not shown) [Example 497] the DC50 was 1000 to 5000 nM.
With `CC(C)(c1ccc(CNC2CN(c3ccc4c(c3)C(=O)N(C3CCC(=O)NC3=O)C4=O)C2)cc1)c1ccc(OCc2ccnc(N3CC4(COC4)C3)n2)cc1` (stereo not shown) [Example 509] the DC50 was 11 to 100 nM.
`CC(C)(c1ccc(OCc2nc(-n3ccnn3)ccc2F)cc1)c1ccc(O[C@H]2C[C@H](Nc3ccc4c(c3)C(=O)N(C3CCC(=O)NC3=O)C4=O)C2)cc1` (stereo partly shown) [Example 285] gave a DC50 of 11 to 100 nM.
`CC(C)(c1ccc(OCCCOc2ccc3c(c2)C(=O)N(C2CCC(=O)NC2=O)C3=O)cc1)c1ccc(OCc2ccnc(N3CC4(COC4)C3)n2)cc1` (stereo not shown) [Example 113, 5-(3-(4-(2-(4-((2-(2-oxa-6-azaspiro[3.3]heptan-6-yl)pyrimidin-4-yl)methoxy)phenyl)propan-2-yl)phenoxy)propoxy)-2-(2,6-dioxopiperidin-3-yl)isoindolin-1,3-dione] gave a DC50 of 1000 to 5000 nM.
Compound `CC(=O)c1cc(COc2ccc(C(C)(C)c3ccc(OCCCCCCCCOCCCCNc4cccc5c4C(=O)N(C4CCC(=O)NC4=O)C5=O)cc3)cc2)ccn1` (stereo not shown) [Example 348, 4-((4-((8-(4-(2-(4-((2-acetylpyridin-4-yl)methoxy)phenyl)isopropan-2-yl)phenoxy)octyl)oxy)butyl)amino)-2-(2,6-dioxopiperidin-3-yl)isoindolin-1,3-dione] has a DC50 of 1000 to 5000 nM.
`Cn1cc(-c2cccc(COc3ccc(C(C)(C)c4ccc(O[C@H]5C[C@@H](Nc6ccc7c(c6)C(=O)N(C6CCC(=O)NC6=O)C7=O)C5)cc4)cc3)n2)cn1` (stereo partly shown) [Example 418] gave a DC50 of 11 to 100 nM.
In the case of `CC(C)(c1ccc(OCCCNc2ccc3c(c2)C(=O)N(C2CCC(=O)NC2=O)C3=O)cc1)c1ccc(OCc2ccnc(NS(C)(=O)=O)n2)cc1` (stereo not shown) [Example 37, N-(4-((4-(2-(4-(3-((2-(2,6-dioxopiperidin-3-yl)-1,3-dioxoisoindolin-5-yl)amino)propoxy)phenyl)propan-2-yl)phenoxy)methyl)pyrimidin-2-yl)methanesulfonamide], the DC50 is reported as 1000 to 5000 nM.
For `CC(C)(c1ccc(OCc2cccc(C(=O)C3CC3)n2)cc1)c1ccc(O[C@H]2C[C@H](Nc3ccc4c(c3)C(=O)N(C3CCC(=O)NC3=O)C4=O)C2)cc1` (stereo partly drawn) [Example 117, 5-(((trans)-3-(4-(2-(4-((6-(cyclopropanecarbonyl)pyridin-2-yl)methoxy)phenyl)propan-2-yl)phenoxy)cyclobutyl)amino)-2-(2,6-dioxopiperidin-3-yl)isoindolin-1,3-dione], the DC50 was 11 to 100 nM.
`CC(C)(c1ccc(OCc2ccnc(-c3cc[nH]n3)n2)cc1)c1ccc(O[C@H]2C[C@@H](Nc3ccc4c(c3)C(=O)N(C3CCC(=O)NC3=O)C4=O)C2)cc1` (stereo partly shown) [Example 274] showed a DC50 of 11 to 100 nM.
`CC(C)(c1ccc(Oc2ncc(F)c(N3CC4(COC4)C3)n2)cc1)c1ccc(O[C@H]2C[C@@H](Nc3ccc4c(c3)C(=O)N(C3CCC(=O)NC3=O)C4=O)C2)cc1` (stereo partly shown) [Example 157] showed a DC50 of 11 to 100 nM.
`CN1CCC2(CCN(c3nccc(COc4ccc(C(C)(C)c5ccc(OC6CC(Nc7ccc8c(c7)C(=O)N(C7CCC(=O)NC7=O)C8=O)C6)cc5)cc4)n3)C2)C1` (stereo not shown) [Example 79, 2-(2,6-dioxopiperidin-3-yl)-5-((3-(4-(2-(4-((2-(7-methyl-2,7-diazaspiro[4.4]nonan-2-yl)pyrimidin-4-yl)methoxy)phenyl)propan-2-yl)phenoxy)cyclobutyl)amino)isoindolin-1,3-dione] showed a DC50 of 11 to 100 nM.
With `CC(C)(c1ccc(OCc2ccnc(N3CC4(COC4)C3)n2)cc1)c1ccc(O[C@H]2CCC[C@H]2Nc2ccc3c(c2)C(=O)N(C2CCC(=O)NC2=O)C3=O)cc1` (stereo partly shown) [Example 315] the DC50 was 1000 to 5000 nM.
Work on `Cc1nc(-c2ncc(Oc3ccc(C(C)(C)c4ccc(N5CCC56CN(c5ccc7c(c5)C(=O)N(C5CCC(=O)NC5=O)C7=O)C6)cc4)cc3)cn2)no1` (stereo not shown) [Example 179, 2-(2,6-dioxopiperidin-3-yl)-5-(1-(4-(2-(4-((2-(5-methyl-1,2,4-oxadiazol-3-yl)pyrimidin-5-yl)oxy)phenyl)propan-2-yl)phenyl)-1,6-diazaspiro[3.3]heptan-6-yl)isoindolin-1,3-dione] yielded a DC50 of 101 to 1000 nM.
With `CC(=O)c1ncc(Oc2ccc(C(C)(C)c3ccc(OC[C@@H]4CCN4c4ccc5c(c4)C(=O)N(C4CCC(=O)NC4=O)C5=O)cc3)cc2)cn1` (stereo partly drawn) [Example 341, 5-((S)-2-((4-(2-(4-((2-acetylpyrimidin-5-yl)oxy)phenyl)propan-2-yl)phenoxy)methyl)azetidin-1-yl)-2-(2,6-dioxopiperidin-3-yl)isoindolin-1,3-dione] the DC50 was 11 to 100 nM.
`CC(=O)c1nccc(COc2ccc(C(C)(C)c3ccc(OC[C@H]4CCCN4c4ccc5c(c4)C(=O)N(C4CCC(=O)NC4=O)C5=O)cc3)cc2)n1` (stereo partly drawn) [Example 144, 5-((R)-2-((4-(2-(4-((2-acetylpyrimidin-4-yl)methoxy)phenyl)propan-2-yl)phenoxy)methyl)pyrrolidin-1-yl)-2-(2,6-dioxopiperidin-3-yl)isoindolin-1,3-dione] was tested, and the DC50 was 1000 to 5000 nM.

Same assay, conditions: AR-v7 degradation in 22RV1 cells, 48 h, numeric values
With `CC(C)(c1ccc(OCCCCCCCCOCCCCNc2ccc3c(c2)C(=O)N(C2CCC(=O)NC2=O)C3=O)cc1)c1ccc(OCc2ccnc(N)n2)cc1` (stereo not shown) [Example 28, 5-((4-((8-(4-(2-(4-((2-aminopyrimidin-4-yl)methoxy)phenyl)propan-2-yl)phenoxy)octyl)oxy)butyl)amino)-2-(2,6-dioxopiperidin-3-yl)isoindolin-1,3-dione] the DC50 was 5270 nM.
Compound `CC(C)(c1ccc(OCc2ccnc(NS(C)(=O)=O)n2)cc1)c1ccc(OCC2CCN(CCCCOCCCCNc3ccc4c(c3)C(=O)N(C3CCC(=O)NC3=O)C4=O)C2)cc1` (stereo not shown) [Example 13, N-(4-((4-(2-(4-((1-(4-(4-(4-)((2-(2,6-dioxopiperidin-3-yl)-1,3-dioxoisoindolin-5-yl)amino)butoxy)butyl)pyrrolidin-3-yl)methoxy)phenyl)propan-2-yl)phenoxy)methyl)pyrimidin-2-yl)methanesulfonamide] has a DC50 of 6970 nM.
For `CC(=O)c1nccc(COc2ccc(C(C)(C)c3ccc(OCCCCCCCCOCC4CN(c5ccc6c(c5)C(=O)N(C5CCC(=O)NC5=O)C6=O)C4)cc3)cc2)n1` (stereo not shown) [Example 298], the DC50 was greater than 10000 nM.
Work on `CN(c1nccc(COc2ccc(C(C)(C)c3ccc(OCCCCCCCCOCCCCNc4ccc5c(c4)C(=O)N(C4CCC(=O)NC4=O)C5=O)cc3)cc2)n1)S(C)(=O)=O` (stereo not shown) [Example 25, N-(4-((4-(2-(4-((8-(4-((2-(2,6-dioxopiperidin-3-yl)-1,3-dioxoisoindolin-5-yl)amino)butoxy)octyl)oxy)phenyl)propan-2-yl)phenoxy)methyl)pyrimidin-2-yl)-N-methyl methanesulfonamide] yielded a DC50 greater than 10000 nM.

Reference: patent US20250051347A1, “BIFUNCTIONAL CHIMERIC HETEROCYCLIC COMPOUND AND USE THEREOF AS ANDROGEN RECEPTOR DEGRADER” (Hinova Pharmaceuticals, Inc., priority 2021, published 2025)
